This is an account of results in patent publication US8828908B2, “Herbicidally active bicyclic 1,3-dione compounds” (Syngenta Limited, priority 2007, dated 2014).

What all share (format): in vivo
Assay [1] concerns Alopecurus myosuroides (ALOMY). Briefly: Example A pre-emergence herbicidal glasshouse test. Particulars: 312 h, Rate 250 g/ha, evaluated after 13 days, 100=total damage to plant, 0=no damage to plant. Here is the method: (§1) Seeds of a variety of test species were sown in standard soil in pots. After cultivation for one day (pre-emergence) or after 8 days cultivation (post-emergence) under controlled conditions in a glasshouse (at 24/16° C., day/night; 14 hours light; 65% humidity), the plants were sprayed with an aqueous spray solution derived from the formulation of the technical active ingredient in acetone/water (50:50) solution containing 0.5% Tween 20 (polyoxyethelyene sorbitan monolaurate, CAS RN 9005-64-5). The test plants were then grown in a glasshouse under controlled conditions in a glasshouse (at 24/16° C., day/night; 14 hours light; 65% humidity) and watered twice daily. After 13 days for pre and post-emergence, the test was evaluated (100=total damage to plant; 0=no damage to plant).
(§2) Alopecurus myosuroides (ALOMY), Avena fatua (AVEFA), Setaria faberi (SETFA), Echinochloa crus-galli (ECHCG), Solanum nigrum (SOLNI) and Amaranthus retroflexus (AMARE)

Assay [2] relates to Echinochloa crus-galli (ECHCG). Put plainly: Example A pre-emergence herbicidal glasshouse test. Particulars: 312 h, Rate 250 g/ha, evaluated after 13 days, 100=total damage to plant, 0=no damage to plant. Here is the method:
as §1, §2

For assay [3], the system named is Setaria faberi (SETFA). Briefly: Example A pre-emergence herbicidal glasshouse test. Particulars: 312 h, Rate 250 g/ha, evaluated after 13 days, 100=total damage to plant, 0=no damage to plant. The procedure:
as §1, §2

The test system of assay [4] is Amaranthus retroflexus (AMARE). Briefly: Example A pre-emergence herbicidal glasshouse test. Particulars: 312 h, Rate 250 g/ha, evaluated after 13 days, 100=total damage to plant, 0=no damage to plant. The procedure:
as §1, §2

The subject of assay [5] is Avena fatua (AVEFA). Put plainly: Example A pre-emergence herbicidal glasshouse test. The note with it: 312 h, Rate 250 g/ha, evaluated after 13 days, 100=total damage to plant, 0=no damage to plant. Here is the method:
as §1, §2

Assay [6] concerns Alopecurus myosuroides (ALOMY). Put plainly: Example A post-emergence herbicidal glasshouse test. The note with it: 312 h, evaluated after 13 days, 100=total damage to plant, 0=no damage. Here is the method:
as §1, §2

In assay [7] the test system is Echinochloa crus-galli (ECHCG). Described as above. Particulars: 312 h, evaluated after 13 days, 100=total damage to plant, 0=no damage. The procedure: as §1, §2
The test system of assay [8] is Setaria faberi (SETFA). Described as above. Particulars: 312 h, evaluated after 13 days, 100=total damage to plant, 0=no damage. Here is the method:
as §1, §2

Assay [9] has as its system Amaranthus retroflexus (AMARE). Described as above. Particulars: 312 h, evaluated after 13 days, 100=total damage to plant, 0=no damage. Here is the method:
as §1, §2

Assay [10] deals with Avena fatua (AVEFA). Described as above. Particulars: 312 h, evaluated after 13 days, 100=total damage to plant, 0=no damage. The procedure:
as §1, §2

What is called pest or weed control is the degree to which the test organism was suppressed or injured, in per cent. Regarding `Cc1ccc(-c2cccc(Cl)c2C)cc1C1=C(O)[C@H]2CC[C@H](C2)C1=O` (single isomer, unassigned) [Compound T48], the pest or weed control at 250 g/ha (in assay [1]; in [2]; with Setaria faberi (SETFA) [3]; in assay [4]; in the assay with Avena fatua (AVEFA) [5]; in assay [6]) was 0% in each case. Moreover, the pest or weed control at 250 g/ha in assay [7] was 40%; with Setaria faberi (SETFA) [8], 40%; in [9] it was 0%; with Avena fatua (AVEFA) [10] it was 20%.
As for `Cc1ccc(-c2ccc(C)c(C3=C(O)[C@H]4CC[C@H](C4)C3=O)c2)cc1Cl` (single isomer, unassigned) [Compound T49], the pest or weed control at 250 g/ha is 0% in [1]; 30% in assay [2]; 0% with Setaria faberi (SETFA) [3]; 0% in assay [4]; 0% in the assay on Avena fatua (AVEFA) [5]; 0% in [6]. Moreover, the pest or weed control at 250 g/ha in [7] is 30%; with Setaria faberi (SETFA) [8], 30%; in assay [9], 0%; with Avena fatua (AVEFA) [10], 0%.
On to `Cc1ccc(-c2cc(Cl)ccc2C)cc1C1=C(O)[C@H]2CC[C@H](C2)C1=O` (single isomer, unassigned) [Compound T50], for which the pest or weed control at 250 g/ha (in assay [1]; in assay [2]; in the assay on Setaria faberi (SETFA) [3]; in assay [4]; in the assay on Avena fatua (AVEFA) [5]; in assay [6]) was 0% in each case. For the same molecule, the pest or weed control at 250 g/ha came out at 30% in [7], 0% in the assay with Setaria faberi (SETFA) [8], 0% in assay [9] and 0% in the assay on Avena fatua (AVEFA) [10].
For the molecule `Cc1ccc(-c2cc(Cl)ccc2Cl)cc1C1=C(O)[C@H]2CC[C@H](C2)C1=O` (single isomer, unassigned) [Compound T51], the pest or weed control at 250 g/ha (in assay [1]; in [2]; with Setaria faberi (SETFA) [3]; in [4]; in the assay on Avena fatua (AVEFA) [5]; in assay [6]) was 0% in each case. The pest or weed control at 250 g/ha (in [7]; in the assay on Setaria faberi (SETFA) [8]; in assay [9]; with Avena fatua (AVEFA) [10]) was 0% throughout.
For `Cc1cc(-c2ccccc2)ccc1C1=C(O)[C@H]2CC[C@H](C2)C1=O` (single isomer, unassigned) [Compound T58], the pest or weed control at 250 g/ha worked out at 10% in [1]; 40% in assay [2]; 20% with Setaria faberi (SETFA) [3]; 30% in assay [4]; 0% with Avena fatua (AVEFA) [5]; 60% in assay [6]. The pest or weed control at 250 g/ha in assay [7] is 70%; in the assay with Setaria faberi (SETFA) [8], 100%; in assay [9], 0%; in the assay with Avena fatua (AVEFA) [10], 0%.
For the molecule `CCc1cc(-c2ccc(C)cc2)ccc1C1=C(O)[C@H]2CC[C@H](C2)C1=O` (single isomer, unassigned) [Compound T60], the pest or weed control at 250 g/ha was 60% in assay [1]; 100% in assay [2]; 100% in the assay on Setaria faberi (SETFA) [3]; 0% in [4]; 30% in the assay on Avena fatua (AVEFA) [5]; 90% in assay [6]. Moreover, the pest or weed control at 250 g/ha in assay [7] worked out at 100%; in the assay with Setaria faberi (SETFA) [8], 100%; in [9], 0%; with Avena fatua (AVEFA) [10] it was 50%.
Regarding `CCc1ccc(-c2cnc(Cl)cc2C)cc1C1=C(O)[C@H]2CC[C@H](C2)C1=O` (single isomer, unassigned) [Compound T77], the pest or weed control at 250 g/ha worked out at 0% in assay [1]; 0% in assay [2]; 30% with Setaria faberi (SETFA) [3]; 0% in assay [4]; 0% with Avena fatua (AVEFA) [5]; 30% in assay [6]. The pest or weed control at 250 g/ha in assay [7] came out at 80%; in the assay with Setaria faberi (SETFA) [8], 90%; in assay [9] it was 0%; in the assay with Avena fatua (AVEFA) [10], 0%.
For `CCc1ccc(-c2ccc(Cl)nc2)cc1C1=C(O)[C@H]2CC[C@H](C2)C1=O` (single isomer, unassigned) [Compound T78], the pest or weed control at 250 g/ha in assay [1] came to 40%; in assay [2], 60%; with Setaria faberi (SETFA) [3], 90%; in [4], 0%; in the assay on Avena fatua (AVEFA) [5], 30%; in assay [6] it was 70%. The pest or weed control at 250 g/ha in assay [7] was 100%; with Setaria faberi (SETFA) [8], 100%; in assay [9], 0%; in the assay with Avena fatua (AVEFA) [10], 60%.
Take `CCc1ccc(-c2ccc(Cl)nc2C)cc1C1=C(O)[C@H]2CC[C@H](C2)C1=O` (single isomer, unassigned) [Compound T79]: the pest or weed control at 250 g/ha is 0% in [1]; 0% in assay [2]; 70% in the assay on Setaria faberi (SETFA) [3]; 0% in assay [4]; 0% in the assay with Avena fatua (AVEFA) [5]; 40% in assay [6]. For the same molecule, the pest or weed control at 250 g/ha in assay [7] is 90%; in the assay with Setaria faberi (SETFA) [8], 100%; in [9] it was 0%; with Avena fatua (AVEFA) [10] it was 20%.
As to `CCc1ccc(-c2ccc(Cl)nc2Cl)cc1C1=C(O)[C@H]2CC[C@H](C2)C1=O` (single isomer, unassigned) [Compound T80], the pest or weed control at 250 g/ha is 30% in assay [1]; 90% in assay [2]; 100% with Setaria faberi (SETFA) [3]; 0% in [4]; 50% with Avena fatua (AVEFA) [5]; 70% in assay [6]. Besides, the pest or weed control at 250 g/ha was 90% in [7], 100% in the assay on Setaria faberi (SETFA) [8], 0% in assay [9] and 70% in the assay on Avena fatua (AVEFA) [10].
As for `Cc1ccc(-c2ccc(Cl)nc2)cc1C1=C(O)[C@H]2CC[C@H](C2)C1=O` (single isomer, unassigned) [Compound T81], the pest or weed control at 250 g/ha is 30% in [1]; 50% in [2]; 70% with Setaria faberi (SETFA) [3]; 20% in [4]; 40% in the assay on Avena fatua (AVEFA) [5]; 50% in [6]. Moreover, the pest or weed control at 250 g/ha is 80% in [7], 90% with Setaria faberi (SETFA) [8], 0% in assay [9] and 70% in the assay on Avena fatua (AVEFA) [10].
Turning to `CCOc1ccc(-c2ccc(Cl)cc2)cc1C1=C(O)[C@H]2CC[C@H](C2)C1=O` [Compound T52], the pest or weed control at 250 g/ha stood at 0% in assay [1]; 0% in [2]; 0% in the assay with Setaria faberi (SETFA) [3]; 0% in assay [4]; 0% in the assay with Avena fatua (AVEFA) [5]; 40% in [6]. Also, the pest or weed control at 250 g/ha in assay [7] was 80%; with Setaria faberi (SETFA) [8] it was 90%; in [9], 0%; in the assay with Avena fatua (AVEFA) [10] it was 0%.
Turning to `COc1ccc(-c2ccc(Cl)cc2Cl)cc1C1=C(O)[C@H]2CC[C@H](C2)C1=O` [Compound T53], the pest or weed control at 250 g/ha (in assay [1]; in assay [2]; in the assay with Setaria faberi (SETFA) [3]; in assay [4]; with Avena fatua (AVEFA) [5]; in assay [6]) was 0% each time. In addition, the pest or weed control at 250 g/ha stood at 30% in [7], 80% with Setaria faberi (SETFA) [8], 0% in [9] and 0% in the assay on Avena fatua (AVEFA) [10].
On to `CCc1ccc(-c2ccc(Cl)cc2Cl)cc1C1=C(O)[C@H]2C=C[C@H](CC2)C1=O` [Compound T56], for which the pest or weed control at 250 g/ha amounted to 10% in [1]; 30% in assay [2]; 50% in the assay on Setaria faberi (SETFA) [3]; 60% in assay [4]; 0% with Avena fatua (AVEFA) [5]; 60% in assay [6]. Further, the pest or weed control at 250 g/ha in assay [7] is 100%; in the assay on Setaria faberi (SETFA) [8], 100%; in assay [9] it was 10%; with Avena fatua (AVEFA) [10], 70%.
